Counter-ions that a name gives are not always drawn.
Tests used:
iNOS [1] = biological target: T1, iNOS (Homo sapiens, UniProt P35228); test: abcam NOS Inhibitor Screening Kit, IC50 (fluorescence); assay type: biochemical; parameters: IC50; IC50; conditions: abcam NOS Inhibitor Screening Kit
Description: (§1) The IC50 of some compounds of the invention was determined using the abcam NOS Inhibitor Screening Kit. The procedure includes the following steps: (1) Dissolved a test compound to 10 mM in DMSO; (2) Diluted the test compound to 1 mM in NOS Assay Buffer; (3) Diluted 1 mM of the test compound stocks to 200 μM, 50 μM, 12.5 μM, 3.125 μM, 0.781 μM, and 0.195 μM in NOS Assay Buffer; (4) Diluted 1 mM DPI Control to 50.0 μM, 12.5 μM, 3.125 μM, 0.781 μM, 0.195 μM, and 0.0488 μM in NOS Assay Buffer; (5) Diluted NOS enzyme with 400 μL of NOS Assay Buffer; (6) Combined Diluted NOS Enzyme with 1.6 mL of NOS Assay buffer then transferred 20 μL of enzyme solution to all wells of 96-well Fluorescence plate except background wells. Added 20 μL of NOS Assay buffer to background wells. (7) Transferred 10 uL of each test compound dilution to the enzyme buffer mix according to the plate map (see addendum for plate map and raw data values). (8) Incubated 15 minutes at room temperature. (9) Added 11 μL of NOS reaction mix (according to manufacturer's protocol) to each well, mixed, and incubated at 37° C. for 1 hour. (10) Added 110 μL of NOS Assay Buffer to each well followed by 5 μL of Enhancer to each well, mixed, and incubated 10 minutes at room temperature; (11) Added 10 μL of Probe to each well, mixed, and incubated 10 minutes at room temperature; and (12) Added 5 μL of NaOH to each well, mixed, and incubated 10 minutes at room temperature. Measure Fluorescence at 360 nm excitation/450 nm emission.

iNOS [2] = biological target: T1, iNOS; test: as above; assay type: biochemical; parameters: Fold (GT-xxxx)/AZ 6b; conditions: ratio of IC50 to AZ 6b IC50 (0.0488 μM)
Description: as §1

| Compound | IC50 (iNOS [1]; Table C-1) [µM] | IC50 (iNOS [1]; Table C-2) [µM] | Fold (GT-xxxx)/AZ 6b (iNOS [2]) |
| --- | --- | --- | --- |
| Cc1ccc(C#N)c(O[C@H](CCNCCCO)c2ccccc2)n1 [GT-5015] | 1.74 |  |  |
| NCCN(Cc1cc(Cl)ccc1Br)c1ccccc1 [GT-7006, N1-(2-bromo-5-chlorobenzyl)-N1-phenylethane-1,2-diamine] | 157 |  |  |
| CNCC[C@@H](Oc1nc(C(F)(F)F)ccc1C#N)c1ccccc1 [GT-5013, (R)-2-(3-(methylamino)-1-phenylpropoxy)-6-(trifluoromethyl) nicotinonitrile] | 23.3 |  |  |
| Cc1ccc(C#N)c(O[C@H](CCNCCO)c2ccccc2)n1 [GT-5014, (R)-2-(3-((2-hydroxyethyl)amino)-1-phenylpropoxy)-6-methylnicotinonitrile] | 2.17 |  |  |
| NCCN(Cc1cc(Cl)ccc1Br)c1ccccc1Cl [GT-7008, N1-(2-bromo-5-chlorobenzyl)-N1-(2-chlorophenyl)ethane-1,2-diamine hydrochloride] | 5.56 |  |  |
| Cc1ccc(C#N)c(O[C@H](CCNCCN(C)C)c2ccccc2)n1 [GT-5019, (R)-2-(3-((2-(dimethylamino)ethyl)amino)-1-phenylpropoxy)-6-methyl nicotinonitrile] | 9.62 |  |  |
| Cc1ccc(C#N)c(O[C@H](CCN2CC[C@@H](O)C2)c2ccccc2)n1 [GT-5017, 2-((R)-3-((R)-3-hydroxypyrrolidin-1-yl)-1-phenylpropoxy)-6-methyl nicotinonitrile] | 6.75 |  |  |
| N#Cc1ccc(Cl)cc1CN(CCNCCO)c1ccccc1 [GT-7010, 4-chloro-2-(((2-((2-hydroxyethyl)amino)ethyl)(phenyl)amino)methyl) benzonitrile] | 9.18 |  |  |
| CNCC[C@@H](Oc1nc(C)ccc1Br)c1ccccc1 [GT-5012, (R)-3-((3-bromo-6-methylpyridin-2-yl)oxy)-N-methyl-3-phenylpropan-1-amine] | 12600 |  |  |
| Cc1ccc(C#N)c(O[C@H](CCN2CC[C@H](O)C2)c2ccccc2)n1 [GT-5016, 2-((R)-3-((S)-3-hydroxypyrrolidin-1-yl)-1-phenylpropoxy)-6-methyl nicotinonitrile] | 4.04 |  |  |
| N#Cc1ccc(Cl)cc1CN(CCNC1CCC(O)CC1)c1ccccc1 (single isomer, unassigned) [GT-7024, 4-chloro-2-(((2-((4-hydroxycyclohexyl)amino)ethyl)(phenyl)amino)methyl) benzonitrile] | 14.4 |  |  |
| N#Cc1ccc(Cl)cc1CN(CCNCC1CC1)c1ccccc1 [GT-7020, 4-chloro-2-(((2-((cyclopropylmethyl)amino)ethyl)(phenyl)amino)methyl) benzonitrile] | 15.5 |  |  |
| Cc1ccc(C#N)c(O[C@H](CCNC(C)(C)C)c2ccccc2)n1 [GT-5018, (R)-2-(3-(tert-butylamino)-1-phenylpropoxy)-6-methylnicotinonitrile] | 5.04 |  |  |
| Cc1ccc(C#N)c(O[C@H](CCNCCc2c[nH]cn2)c2ccccc2)n1 [GT-5023, (R)-2-(3-((2-(1H-imidazol-4-yl)ethyl)amino)-1-phenylpropoxy)-6-methylnicotinonitrile] | 5.43 |  |  |
| Cc1ccc(C#N)c(O[C@H](CCNCCN2CCOCC2)c2ccccc2)n1 [GT-5020, (R)-6-methyl-2-(3-((2-morpholinoethyl)amino)-1-phenylpropoxy)nicotinonitrile] | 7.29 |  |  |
| Cc1ccc(C#N)c(O[C@H](CCNCC2CC2)c2ccccc2)n1 [GT-5031, (R)-2-(3-((cyclopropylmethyl)amino)-1-phenylpropoxy)-6-methylnicotinonitrile] | 4.54 |  |  |
| N#Cc1ccc(Cl)cc1CN(CCNC(CO)CO)c1ccccc1 [GT-7018, 4-chloro-2-(((2-((1,3-dihydroxypropan-2-yl)amino)ethyl)(phenyl)amino)methyl)benzonitrile] | 20.3 |  |  |
| N#Cc1ccc(Cl)cc1CN(CCN)c1ccccc1Cl [GT-7004, 2-(((2-aminoethyl)(2-chlorophenyl)amino)methyl)-4-chlorobenzonitrile hydrochloride] | 5.79 |  |  |
| N#Cc1ccc(Cl)cc1CN(CCNC[C@@H](O)CO)c1ccccc1 [GT-7016, (R)-4-chloro-2-(((2-((2,3-dihydroxypropyl)amino)ethyl)(phenyl)amino)methyl)benzonitrile] | 8.52 |  |  |
| Cc1ccc(C#N)c(O[C@H](CCNC[C@H](O)CO)c2ccccc2)n1 [GT-5024, 2-((R)-3-(((S)-2,3-dihydroxypropyl)amino)-1-phenylpropoxy)-6-methylnicotinonitrile] | 2.34 |  |  |
| Cc1ccc(C#N)c(O[C@H](CCNC[C@@H](O)CO)c2ccccc2)n1 [GT-5025, 2-((R)-3-(((R)-2,3-dihydroxypropyl)amino)-1-phenylpropoxy)-6-methylnicotinonitrile] | 3.56 |  |  |
| N#Cc1ccc(Cl)cc1C(=O)N(CCNC(CO)CO)c1ccccc1 [GT-7017, 5-chloro-2-cyano-N-(2-((1,3-dihydroxypropan-2-yl)amino)ethyl)-N-phenylbenzamide] | 3.66 |  |  |
| N#Cc1ccc(Cl)cc1CN(CCNC1CCC(O)CC1)c1ccccc1 (single isomer, unassigned) [GT-7023, 4-chloro-2-(((2-((4-hydroxycyclohexyl)amino)ethyl)(phenyl)amino)methyl) benzonitrile] | 10.5 |  |  |

Compounds with a lower IC50 (iNOS [1]; Table C-1), results first:

| IC50 (iNOS [1]; Table C-1) [µM] | IC50 (iNOS [1]; Table C-2) [µM] | Fold (GT-xxxx)/AZ 6b (iNOS [2]) | Compound |
| --- | --- | --- | --- |
| 1.59 |  |  | Cc1ccc(C#N)c(O[C@H](CCN)c2ccccc2)n1 [GT-5001, (R)-2-(3-amino-1-phenylpropoxy)-6-methylnicotinonitrile] |
| 1.35 |  |  | CNCC[C@@H](Oc1nc(C)ccc1C#N)c1ccccc1 [GT-5002, (R)-6-methyl-2-(3-(methylamino)-1-phenylpropoxy)nicotinonitrile] |
| 0.457 | 0.457 | 9.36 | CNCC[C@@H](Oc1cc(Cl)cc2[nH]cnc12)c1ccccc1 [GT-6058, (R)-3-((6-chloro-1H-benzo[d]imidazol-4-yl)oxy)-N-methyl-3-phenylpropan-1-amine] |
| 0.444 | 0.444 | 9.10 | OCCNCC[C@@H](Oc1cc(Cl)cc2[nH]cnc12)c1ccccc1 [GT-6060, (R)-2-((3-((6-chloro-1H-benzo[d]imidazol-4-yl)oxy)-3-phenylpropyl)amino)ethan-1-ol] |
| 0.438 | 0.438 | 8.98 | N#Cc1ccc(Cl)cc1C(=O)N(CCNCC1CC1)c1ccccc1 [GT-7019, 5-chloro-2-cyano-N-(2-((cyclopropylmethyl)amino)ethyl)-N-phenyl benzamide] |
| 0.29 | 0.29 | 5.94 | N#Cc1ccc(Cl)cc1C(=O)N(CCNCCCO)c1ccccc1 [GT-7011, 5-chloro-2-cyano-N-(2-((3-hydroxypropyl)amino)ethyl)-N-phenylbenzamide] |
| 0.27 | 0.27 | 5.53 | O=C1c2ccccc2C(=O)N1CC[C@@H](Oc1cc(Cl)cc2[nH]ncc12)c1ccccc1 [GT-6066, (R)-2-(3-((6-chloro-1H-indazol-4-yl)oxy)-3-phenylpropyl)isoindoline-1,3-dione] |
| 0.252 | 0.252 | 5.16 | CNCC[C@@H](Oc1cc(Cl)cc2[nH]ncc12)c1ccccc1 [GT-6059, (R)-3-((6-chloro-1H-indazol-4-yl)oxy)-N-methyl-3-phenylpropan-1-amine] |
| 0.231 | 0.231 | 4.73 | NCC[C@@H](Oc1cc(Cl)cc2[nH]ncc12)c1ccccc1 [GT-6045] |
| 0.156 | 0.156 | 3.20 | NCC[C@@H](Oc1cc(Cl)cc2[nH]cnc12)c1ccccc1 [GT-6041, (R)-3-((6-chloro-1H-benzo[d]imidazol-4-yl)oxy)-3-phenylpropan-1-amine] |
| 0.148 | 0.148 | 3.03 | N#Cc1ccc(Cl)cc1C(=O)N(CCNCCO)c1ccccc1 [GT-7009, 5-chloro-2-cyano-N-(2-((2-hydroxyethyl)amino)ethyl)-N-phenylbenzamide] |
| 0.112 | 0.112 | 2.30 | N#Cc1ccc(Cl)cc1C(=O)N(CCN)c1ccccc1Cl [GT-7002, N-(2-aminoethyl)-5-chloro-N-(2-chlorophenyl)-2-cyanobenzamide] |
| 0.0955 | 0.0955 | 1.96 | NCCN(C(=O)c1cc(Cl)ccc1Br)c1ccccc1Cl [GT-7007, N-(2-aminoethyl)-2-bromo-5-chloro-N-(2-chlorophenyl) benzamide] |
| 0.0678 | 0.0678 | 1.39 | N#Cc1ccc(Cl)cc1OC(CCN1C(=O)c2ccccc2C1=O)c1ccn2ccnc2c1 (stereo not shown) [GT-6065, 4-chloro-2-(3-(1,3-dioxoisoindolin-2-yl)-1-(imidazo[1,2-a]pyridin-7-yl)propoxy)benzonitrile] |
| 0.0285 | 0.0285 | 0.58 | N#Cc1ccc(Cl)cc1OC(CCN)c1ccnc(N)c1 (stereo not shown) [GT-6064, 2-(3-amino-1-(2-aminopyridin-4-yl)propoxy)-4-chlorobenzonitrile] |
